In patent publication US12077503B2, “Substituted cyclic amides and their use as herbicides” (FMC CORPORATION, priority 2015, dated 2024):

Tests used:
Type in all cases: in vivo
[1] = system: blackgrass (Alopecurus myosuroides); test: Test A postemergence; conditions: Alopecurus myosuroides, post-emergence, 240 h; for pest or weed control at 125 g/ha: 125 g ai/ha, postemergence, visual injury on 0 to 100 scale (0 no effect, 100 complete control), approx. 10 d, read-out: Blackgrass plant response rating; for pest or weed control at 31 g/ha: Postemergence, 31 g ai/ha, visual injury after approx. 10 d, 0 to 100 scale, 0 no effect, 100 complete control, read-out: Plant response rating, Blackgrass
Procedure, shortened: (§1)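 Seeds sprayed preemergence with a directed soil spray, or plants at 2 to 10 cm height and one- to two-leaf stage sprayed postemergence, with test chemicals in a non-phytotoxic solvent mixture containing surfactant, in loam soil–sand blend. Injury rated visually against untreated controls after about 10 d in greenhouse, 0 (no effect) to 100 (complete control).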

[2] = system: corn (Zea mays); test: Test A postemergence; conditions: Zea mays, post-emergence, 240 h; for plant injury at 125 g/ha: 125 g ai/ha, postemergence, visual injury on 0 to 100 scale (0 no effect, 100 complete control), approx. 10 d, read-out: Corn plant response rating; for Corn plant response rating (crop injury, 0 = no effect, 100 = complete kill) at 31 g/ha: Postemergence, 31 g ai/ha, visual injury after approx. 10 d, 0 to 100 scale, 100 complete control
Procedure, shortened: as §1

[3] = system: ragweed (common ragweed, Ambrosia elatior); test: Test A postemergence; conditions: Ambrosia artemisiifolia, post-emergence, 240 h; for pest or weed control at 125 g/ha: 125 g ai/ha, postemergence, visual injury on 0 to 100 scale (0 no effect, 100 complete control), approx. 10 d, read-out: Ragweed plant response rating; for pest or weed control at 31 g/ha: Postemergence, 31 g ai/ha, visual injury after approx. 10 d, 0 to 100 scale, 0 no effect, 100 complete control, read-out: Plant response rating, Ragweed
Procedure, shortened: as §1

[4] = system: ryegrass, Italian (Italian ryegrass, Lolium multiflorum); test: Test A postemergence; conditions: Lolium multiflorum, post-emergence, 240 h; for pest or weed control at 125 g/ha: 125 g ai/ha, postemergence, visual injury on 0 to 100 scale (0 no effect, 100 complete control), approx. 10 d, read-out: Ryegrass, Italian plant response rating; for pest or weed control at 31 g/ha: Postemergence, 31 g ai/ha, visual injury after approx. 10 d, 0 to 100 scale, 0 no effect, 100 complete control, read-out: Plant response rating, Ryegrass, Italian
Procedure, shortened: as §1

[5] = system: giant foxtail (Setaria faberii); test: Test A postemergence; conditions: Setaria faberi, post-emergence, 240 h; for pest or weed control at 125 g/ha: 125 g ai/ha, postemergence, visual injury on 0 to 100 scale (0 no effect, 100 complete control), approx. 10 d, read-out: Foxtail, Giant plant response rating; for pest or weed control at 31 g/ha: Postemergence, 31 g ai/ha, visual injury after approx. 10 d, 0 to 100 scale, 0 no effect, 100 complete control, read-out: Plant response rating, Foxtail, Giant
Procedure, shortened: as §1

[6] = system: wheat (Triticum aestivum); test: Test A postemergence; conditions: Triticum aestivum, post-emergence, 240 h; for plant injury at 125 g/ha: 125 g ai/ha, postemergence, visual injury on 0 to 100 scale (0 no effect, 100 complete control), approx. 10 d, read-out: Wheat plant response rating; for plant injury at 31 g/ha: Postemergence, 31 g ai/ha, visual injury after approx. 10 d, 0 to 100 scale, 0 no effect, 100 complete control, read-out: Plant response rating, Wheat
Procedure, shortened: as §1

[7] = system: Galium (catchweed bedstraw, Galium aparine); test: Test A postemergence; conditions: Galium, post-emergence, 240 h; for pest or weed control at 125 g/ha: 125 g ai/ha, postemergence, visual injury on 0 to 100 scale (0 no effect, 100 complete control), approx. 10 d, read-out: Galium plant response rating; for pest or weed control at 31 g/ha: Postemergence, 31 g ai/ha, visual injury after approx. 10 d, 0 to 100 scale, 0 no effect, 100 complete control, read-out: Plant response rating, Galium
Procedure, shortened: as §1

[8] = system: pigweed (Amaranthus retroflexus); test: Test A postemergence; conditions: Amaranthus retroflexus, post-emergence, 240 h; for pest or weed control at 125 g/ha: 125 g ai/ha, postemergence, visual injury on 0 to 100 scale (0 no effect, 100 complete control), approx. 10 d, read-out: Pigweed plant response rating; for pest or weed control at 31 g/ha: Postemergence, 31 g ai/ha, visual injury after approx. 10 d, 0 to 100 scale, 0 no effect, 100 complete control, read-out: Plant response rating, Pigweed
Procedure, shortened: as §1

[9] = system: Kochia (Kochia scoparia); test: Test A postemergence; conditions: Bassia scoparia, post-emergence, 240 h; for pest or weed control at 125 g/ha: 125 g ai/ha, postemergence, visual injury on 0 to 100 scale (0 no effect, 100 complete control), approx. 10 d, read-out: Kochia plant response rating; for pest or weed control at 31 g/ha: Postemergence, 31 g ai/ha, visual injury after approx. 10 d, 0 to 100 scale, 0 no effect, 100 complete control, read-out: Plant response rating, Kochia
Procedure, shortened: as §1

[10] = system: barnyardgrass (Echinochloa crus-galli); test: Test A postemergence; conditions: Echinochloa crus-galli, post-emergence, 240 h
Procedure, shortened: as §1

[11] = system: ragweed (common ragweed, Ambrosia elatior); test: Test A preemergence; conditions: Ambrosia artemisiifolia, pre-emergence, 240 h, 0 to 100 scale where 0 is no effect and 100 is complete control, read-out: Ragweed plant response rating; for pest or weed control at 31 g/ha: 31 g ai/ha, Preemergence; for pest or weed control at 125 g/ha: 125 g ai/ha, preemergence, approx. 10 d
Procedure, shortened: as §1

[12] = system: ryegrass, Italian (Italian ryegrass, Lolium multiflorum); test: Test A preemergence; conditions: Lolium multiflorum, pre-emergence, 240 h, 0 to 100 scale where 0 is no effect and 100 is complete control, read-out: Ryegrass, Italian plant response rating; for pest or weed control at 31 g/ha: 31 g ai/ha, Preemergence; for pest or weed control at 125 g/ha: 125 g ai/ha, preemergence, approx. 10 d
Procedure, shortened: as §1

[13] = system: giant foxtail (Setaria faberii); test: Test A preemergence; conditions: Setaria faberi, pre-emergence, 240 h, 0 to 100 scale where 0 is no effect and 100 is complete control, read-out: Foxtail, Giant plant response rating; for pest or weed control at 31 g/ha: 31 g ai/ha, Preemergence; for pest or weed control at 125 g/ha: 125 g ai/ha, preemergence, approx. 10 d
Procedure, shortened: as §1

[14] = system: pigweed (Amaranthus retroflexus); test: Test A preemergence; conditions: Amaranthus retroflexus, pre-emergence, 240 h, 0 to 100 scale where 0 is no effect and 100 is complete control, read-out: Pigweed plant response rating; for pest or weed control at 31 g/ha: 31 g ai/ha, Preemergence; for pest or weed control at 125 g/ha: 125 g ai/ha, preemergence, approx. 10 d
[15] = system: Kochia (Kochia scoparia); test: Test A preemergence; conditions: Bassia scoparia, pre-emergence, 240 h, 0 to 100 scale where 0 is no effect and 100 is complete control, read-out: Kochia plant response rating; for pest or weed control at 31 g/ha: 31 g ai/ha, Preemergence; for pest or weed control at 125 g/ha: 125 g ai/ha, preemergence, approx. 10 d
Procedure, shortened: as §1

[16] = system: barnyardgrass (Echinochloa crus-galli); test: Test A preemergence; conditions: Echinochloa crus-galli, pre-emergence, 240 h, 0 to 100 scale where 0 is no effect and 100 is complete control, read-out: Barnyardgrass plant response rating; for pest or weed control at 31 g/ha: 31 g ai/ha, Preemergence; for pest or weed control at 125 g/ha: 125 g ai/ha, preemergence, approx. 10 d
Procedure, shortened: as §1

[17] = system: ducksalad (Heteranthera limosa); test: Test B flooded paddy test; conditions: Heteranthera limosa, 250 g ai/ha, Flood; 0 to 100 scale where 0 is no effect and 100 is complete control; read-out: Ducksalad plant response rating
Procedure, shortened: (§2)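 Flooding to 3 cm over soil accompanied treatment, which consisted of adding compound to the standing water around 2-leaf plants; depth was then maintained. Visual assessment versus controls followed at 13 to 15 d (scale 0–100, 0 meaning no effect).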

[18] = system: sedge, umbrella (small-flower umbrella sedge, Cyperus difformis); test: Test B flooded paddy test; conditions: Cyperus difformis, 250 g ai/ha, Flood; 0 to 100 scale where 0 is no effect and 100 is complete control; read-out: Sedge, Umbrella plant response rating
Procedure, shortened: as §2

[19] = system: barnyardgrass (Echinochloa crus-galli); test: Test B flooded paddy test; conditions: Echinochloa crus-galli, 250 g ai/ha, Flood; 0 to 100 scale where 0 is no effect and 100 is complete control; read-out: Barnyardgrass plant response rating
Procedure, shortened: as §2

[20] = system: rice (Oryra sativa); test: Test B flooded paddy test; conditions: Oryza sativa, 250 g ai/ha, Flood; 0 to 100 scale where 0 is no effect and 100 is complete control; read-out: Rice plant response rating
Procedure, shortened: as §2

| Structure (SMILES) | pest or weed control at 125 g/ha [1] [%] | pest or weed control at 31 g/ha [1] [%] | plant injury at 125 g/ha [2] [%] | Corn plant response rating (crop injury, 0 = no effect, 100 = complete kill) at 31 g/ha [2] [%] | pest or weed control at 125 g/ha [3] [%] | pest or weed control at 31 g/ha [3] [%] | pest or weed control at 125 g/ha [4] [%] | pest or weed control at 31 g/ha [4] [%] | pest or weed control at 125 g/ha [5] [%] | pest or weed control at 31 g/ha [5] [%] | plant injury at 125 g/ha [6] [%] | plant injury at 31 g/ha [6] [%] | pest or weed control at 125 g/ha [7] [%] | pest or weed control at 31 g/ha [7] [%] | pest or weed control at 125 g/ha [8] [%] | pest or weed control at 31 g/ha [8] [%] | pest or weed control at 125 g/ha [9] [%] | pest or weed control at 31 g/ha [9] [%] | pest or weed control at 31 g/ha [11] [%] | pest or weed control at 125 g/ha [11] [%] | other results |
| --- | --- | --- | --- | --- | --- | --- | --- | --- | --- | --- | --- | --- | --- | --- | --- | --- | --- | --- | --- | --- | --- |
| CN1C[C@H](c2csc3c2CCCC3)[C@@H](C(=O)Nc2ccc(F)c(F)c2F)C1=O [Compound 1079] | 0 | 0 | 0 | 0 | 0 | 0 | 0 | 0 | 20 | 0 | 30 | 0 | 0 | 0 | 0 | 0 | 20 | 0 | 0 | 0 | pest or weed control at 125 g/ha ([10]; 125 g ai/ha, postemergence, visual injury on 0 to 100 scale (0 no effect, 100 complete control), approx. 10 d, read-out: Barnyardgrass plant response rating): 90%; pest or weed control at 31 g/ha ([10]; Postemergence, 31 g ai/ha, visual injury after approx. 10 d, 0 to 100 scale, 0 no effect, 100 complete control, read-out: Plant response rating, Barnyardgrass): 20%; pest or weed control at 31 g/ha [12]: 0%; pest or weed control at 125 g/ha [12]: 0%; pest or weed control at 31 g/ha [13]: 20%; pest or weed control at 125 g/ha [13]: 100%; pest or weed control at 31 g/ha [14]: 0%; pest or weed control at 125 g/ha [14]: 0%; pest or weed control at 31 g/ha [15]: 0%; pest or weed control at 125 g/ha [15]: 0%; pest or weed control at 31 g/ha [16]: 0%; pest or weed control at 125 g/ha [16]: 80%; pest or weed control at 250 g/ha [17]: 30%; pest or weed control at 250 g/ha [18]: 0%; pest or weed control at 250 g/ha [19]: 60%; pest or weed control at 250 g/ha [20]: 20% |
| CN1C[C@H](c2cc(C(F)F)cs2)[C@@H](C(=O)Nc2cccc(F)n2)C1=O [Compound 1090] | 20 | 0 | 20 | 0 | 0 | 0 | 0 | 0 | 80 | 20 | 20 | 0 | 30 | 30 | 0 | 0 | 30 | 0 | 0 | 0 | pest or weed control at 31 g/ha [12]: 30%; pest or weed control at 125 g/ha [12]: 0%; pest or weed control at 31 g/ha [13]: 60%; pest or weed control at 125 g/ha [13]: 100%; pest or weed control at 31 g/ha [14]: 0%; pest or weed control at 125 g/ha [14]: 0%; pest or weed control at 31 g/ha [15]: 20%; pest or weed control at 125 g/ha [15]: 30%; pest or weed control at 31 g/ha [16]: 10%; pest or weed control at 125 g/ha [16]: 90%; pest or weed control at 250 g/ha [17]: 95%; pest or weed control at 250 g/ha [18]: 0%; pest or weed control at 250 g/ha [19]: 80%; pest or weed control at 250 g/ha [20]: 0% |
